According to patent US12187721B2, “Protein tyrosine phosphatase inhibitors” (Array BioPharma Inc., priority 2018, dated 2025):
Like-named read-outs stand apart in the source and are kept apart here.

Biological target: T1, full-length SHP2 (His6-tagged SHP2(2-527)) (Homo sapiens, UniProt Q06124)
T1 construct: His6-tagged SHP2(2-527); His6; made in house; host or cells: E. coli
Assay: SHP2 Enzymatic Assay (fluorescence intensity kinetic assay, DiFMUP hydrolysis)
Type: biochemical
Procedure: A fluorescence intensity kinetic assay was configured for full-length SHP2 that monitors the amount of 6,8-difluoro-7-hydroxy-4-methylcoumarin (“DiFMU”) formed upon hydrolysis of 6,8-difluoro-4-methylumbelliferyl phosphate (“DiFMUP”) by SHP2. Assay mixtures consisted of 25 mM K^+HEPES, pH 7.4, 0.01% Triton X-100, 1 mM DTT, 50 mM KCl, 100 μg/mL bovine γ-globulin, 50 μM DiFMUP, 1 μM SHP2 activating peptide (LN(pY)IDLDLV(dPEG8)LST(pY)ASINFQK-amide), 1 nM full-length SHP2 (His6-tagged SHP2(2-527), recombinantly expressed in E. coli and purified in-house) and 2% dimethylsulfoxide (“DMSO”) (from compound). […] The assay was run in 384-well, polystyrene, low-volume, non-treated, black microtiter plates (Costar 4511) in a final volume of 20 μL. Low control wells lacked enzyme. The assays were initiated by the addition of a mixture of SHP2 and the activating peptide, and following a 15 second mix on an orbital shaker, were read in kinetic mode for 15 minutes (30 seconds/cycle) at ambient temperature on a PerkinElmer EnVision microplate reader (λEx=355 nm, λEm=460 nm). Initial velocities (slopes of the tangents at t=0) were estimated from exponential fits to the slightly nonlinear progress curves and then were converted to percent of control (“POC”) using the following equation:
[formula] • Where: Xmax Average Uninhibited Controls • Xmin Average Background A 4-parameter logistic model was the fit to the POC data for each compound. From that fit, the IC50 was estimated and is defined as the concentration of compound at which the curve crosses 50 POC.
The reported IC50 in Table 1 may be from a single assay or the mean of multiple assays.

[1] = full-length SHP2 with 1 μM activating peptide, 50 μM DiFMUP, single assay or mean of multiple assays, read-out: Biological Example 1 IC50

T1 sequence (Q06124 2-527): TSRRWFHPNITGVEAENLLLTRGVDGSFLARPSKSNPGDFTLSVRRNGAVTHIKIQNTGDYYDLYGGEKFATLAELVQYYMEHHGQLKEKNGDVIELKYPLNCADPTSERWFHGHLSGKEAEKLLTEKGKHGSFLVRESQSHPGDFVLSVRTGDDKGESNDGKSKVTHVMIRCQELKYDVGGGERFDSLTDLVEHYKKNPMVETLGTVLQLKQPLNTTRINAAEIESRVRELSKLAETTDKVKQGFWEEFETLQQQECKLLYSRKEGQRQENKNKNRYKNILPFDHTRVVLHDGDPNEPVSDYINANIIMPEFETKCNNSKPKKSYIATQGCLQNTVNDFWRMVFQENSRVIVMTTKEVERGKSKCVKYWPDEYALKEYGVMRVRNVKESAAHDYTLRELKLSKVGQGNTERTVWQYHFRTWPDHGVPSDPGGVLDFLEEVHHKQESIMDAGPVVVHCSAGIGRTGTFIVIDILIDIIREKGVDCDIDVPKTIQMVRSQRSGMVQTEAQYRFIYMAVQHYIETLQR

| SMILES | IC50 [nM] | IC50 [1] [nM] |
| --- | --- | --- |
| CC1(N)CCN(c2cnc3nc(-c4ccnc(N5CC[C@@H](O)C5)c4Cl)ccc3n2)CC1 [Example 46, (R)-1-(4-(2-(4-amino-4-methylpiperidin-1-yl)pyrido[2,3-b]pyrazin-6-yl)-3-chloropyridin-2-yl)pyrrolidin-3-ol] | 2900 | – |
| CC1(N)CCCN(c2cnc3nc(Sc4ccnc(N)c4Cl)ccc3n2)CC1 (centres unmarked) [Example 73, 1-(6-((2-amino-3-chloropyridin-4-yl)thio)pyrido[2,3-b]pyrazin-2-yl)-4-methylazepan-4-amine] | 35 | – |
| COCCCNc1nccc(Sc2ccc3nc(N4CCC(C)(N)CC4)cnc3n2)c1Cl [Example 195, 4-((2-(4-amino-4-methylpiperidin-1-yl)pyrido[2,3-b]pyrazin-6-yl)thio)-3-chloro-N-(3-methoxypropyl)pyridin-2-amine] | 506 | – |
| CC1(N)CCN(c2cnc3nc(-c4ccnc(NCCO)c4Cl)ccc3n2)CC1 [Example 47, 2-((4-(2-(4-amino-4-methylpiperidin-1-yl)pyrido[2,3-b]pyrazin-6-yl)-3-chloropyridin-2-yl)amino)ethan-1-ol] | 6000 | – |
| CC1(N)CCN(c2cnc3nc(Sc4cccc5ccncc45)ccc3n2)CC1 [Example 48, 1-(6-(isoquinolin-8-ylthio)pyrido[2,3-b]pyrazin-2-yl)-4-methylpiperidin-4-amine] | 460 | – |
| NCC1CC2CCCC(C1)N2c1cnc2nc(Sc3ccnc(N)c3Cl)ccc2n1 (centres unmarked) [Example 101, 4-((2-(3-(aminomethyl)-9-azabicyclo[3.3.1]nonan-9-yl)pyrido[2,3-b]pyrazin-6-yl)thio)-3-chloropyridin-2-amine] | 56 | – |
| Nc1nccc(Sc2ccc3nc(N4CCC[C@H](N)CC4)cnc3n2)c1Cl [Example 51, (S)-1-(6-((2-amino-3-chloropyridin-4-yl)thio)pyrido[2,3-b]pyrazin-2-yl)azepan-4-amine] | 65 | – |
| Cc1nc2nc(Sc3cccc(Cl)c3Cl)ccc2nc1N1CCC(C)(N)CC1 [Example 120, 1-(6-((2,3-dichlorophenyl)thio)-3-methylpyrido[2,3-b]pyrazin-2-yl)-4-methylpiperidin-4-amine] | 633 | – |
| Cc1nccc(Sc2ccc3nc(N4CCC[C@](C)(N)CC4)cnc3n2)c1Cl (single isomer, unassigned) [Example 151] | 76 | – |
| N[C@@H]1c2ccccc2CC12CCN(c1cnc3nc(Sc4cccnc4C(F)(F)F)ccc3n1)CC2 [Example 162, (S)-1′-(6-((2-(trifluoromethyl)pyridin-3-yl)thio)pyrido[2,3-b]pyrazin-2-yl)-1,3-dihydrospiro[indene-2,4′-piperidin]-1-amine] | 39 | – |
| C[C@@]1(N)CCN(c2cnc3nc(-c4cccc(Cl)c4Cl)ccc3n2)C1 [Example 32, (R)-1-(6-(2,3-dichlorophenyl)pyrido[2,3-b]pyrazin-2-yl)-3-methylpyrrolidin-3-amine] | 420 | – |
| Nc1nccc(Sc2ccc3nc(N4CCC5(CC4)C[C@@H](O)C[C@H]5N)cnc3n2)c1Cl [Example 160, (2R,4R)-4-amino-8-(6-((2-amino-3-chloropyridin-4-yl)thio)pyrido[2,3-b]pyrazin-2-yl)-8-azaspiro[4.5]decan-2-ol] | – | 60 |
| C[C@@H]1OCC2(CCN(c3cnc4nc(Sc5cc(N)nc(Cl)c5Cl)ccc4n3)CC2)[C@@H]1N [Example 68, (3S,4S)-8-(6-((6-amino-2,3-dichloropyridin-4-yl)thio)pyrido[2,3-b]pyrazin-2-yl)-3-methyl-2-oxa-8-azaspiro[4,5]decan-4-amine] | 69 | – |
| C[C@@H]1OCC2(CCN(c3cnc4nc(Sc5cc(N)nc6[nH]ccc56)ccc4n3)CC2)[C@@H]1N [Example 140, (3S,4S)-8-(6-((6-amino-1H-pyrrolo[2,3-b]pyridin-4-yl)thio)pyrido[2,3-b]pyrazin-2-yl)-3-methyl-2-oxa-8-azaspiro[4.5]decan-4-amine] | 75 | – |
| C[C@@H]1OCC2(CCN(c3cnc4nc(Sc5ccnc(C(F)(F)F)c5)ccc4n3)CC2)[C@@H]1N [Example 190, (3S,4S)-3-methyl-8-(6-((2-(trifluoromethyl)pyridin-4-yl)thio)pyrido[2,3-b]pyrazin-2-yl)-2-oxa-8-azaspiro[4.5]decan-4-amine] | 3650 | – |
| C[C@@H]1OCC2(CCN(c3cnc4nc(Sc5ccnc6c5ccn6C)ccc4n3)CC2)[C@@H]1N [Example 191, (3S,4S)-3-methyl-8-(6-((1-methyl-1H-pyrrolo[2,3-b]pyridin-4-yl)thio)pyrido[2,3-b]pyrazin-2-yl)-2-oxa-8-azaspiro[4.5]decan-4-amine] | 134 | – |

| SMILES | IC50 [nM] | IC50 [1] [nM] |
| --- | --- | --- |
| CC1(N)CCN(c2cnc3nc(-c4ccnc(N5CCCC5)c4Cl)ccc3n2)CC1 [Example 19, 1-(6-(3-chloro-2-(pyrrolidin-1-yl)pyridin-4-yl)pyrido[2,3-b]pyrazin-2-yl)-4-methylpiperidin-4-amine] | 1700 | – |
| COc1ccc2c(c1)[C@@H](N)C1(CCN(c3cnc4nc(Sc5ccnc(N)c5Cl)ccc4n3)CC1)C2 [Example 219, (S)-1′-(6-((2-amino-3-chloropyridin-4-yl)thio)pyrido[2,3-b]pyrazin-2-yl)-6-methoxy-1,3-dihydrospiro[indene-2,4′-piperidin]-1-amine] | 4190 | – |
| Nc1nccc(Sc2ccc3nc(N4CC5CCC(C4)N5)cnc3n2)c1Cl [Example 201, 4-((2-(3,8-diazabicyclo[3.2.1]octan-3-yl)pyrido[2,3-b]pyrazin-6-yl)thio)-3-chloropyridin-2-amine] | 130 | – |
| Cn1ncc2cccc(Sc3ccc4nc(N5CCC(C)(N)CC5)cnc4n3)c21 [Example 34, 4-methyl-1-(6-((1-methyl-1H-indazol-7-yl)thio)pyrido[2,3-b]pyrazin-2-yl)piperidin-4-amine] | 2600 | – |
| N#Cc1ccc2c(c1)[C@@H](N)C1(CCN(c3cnc4nc(Sc5ccnc(N)c5Cl)ccc4n3)CC1)C2 (single isomer, unassigned) [Example 112] | 33 | – |
| NC1(CO)CCN(c2cnc3nc(Sc4cccc(Cl)c4Cl)ccc3n2)CC1 [Example 9, (4-amino-1-(6-((2,3-dichlorophenyl)thio)pyrido[2,3-b]pyrazin-2-yl)piperidin-4-yl)methanol] | 62 | – |
| NCC1CN(c2cnc3nc(-c4cccc(Cl)c4Cl)ccc3n2)CCO1 (centres unmarked) [Example 64, (4-(6-(2,3-dichlorophenyl)pyrido[2,3-b]pyrazin-2-yl)morpholin-2-yl)methanamine] | 730 | – |
| C[C@@H]1OCC2(CCN(c3cnc4nc(N5CCCc6ccccc65)ccc4n3)CC2)[C@@H]1N [Example 69, (3S,4S)-8-(6-(3,4-dihydroquinolin-1(2H)-yl)pyrido[2,3-b]pyrazin-2-yl)-3-methyl-2-oxa-8-azaspiro[4,5]decan-4-amine] | 79 | – |
| CC(C)(N)C1CCN(c2cnc3nc(Sc4cccc(Cl)c4Cl)ccc3n2)CC1 [Example 61, 2-(1-(6-((2,3-dichlorophenyl)thio)pyrido[2,3-b]pyrazin-2-yl)piperidin-4-yl)propan-2-amine] | 1570 | – |
| Nc1nccc(Sc2ccc3nc(N4CCC5(CC4)Cc4cc(F)ccc4[C@H]5N)cnc3n2)c1Cl [Example 145, (S)-1′-(6-((2-amino-3-chloropyridin-4-yl)thio)pyrido[2,3-b]pyrazin-2-yl)-5-fluoro-1,3-dihydrospiro[indene-2,4′-piperidin]-1-amine] | – | 27 |
| C[C@@H]1OCC2(CCN(c3cnc4nc(Sc5ccnc(N6CC[C@H](O)C6)c5Cl)ccc4n3)CC2)[C@@H]1N [Example 88, (S)-1-(4-((2-((3S,4S)-4-amino-3-methyl-2-oxa-8-azaspiro[4.5]decan-8-yl)pyrido[2,3-b]pyrazin-6-yl)thio)-3-chloropyridin-2-yl)pyrrolidin-3-ol] | 105 | – |
| Nc1nccc(Sc2ccc3nc(N4CCC5(CC4)Cc4c(Cl)cccc4[C@@H]5N)cnc3n2)c1Cl [Example 220, (R)-1′-(6-((2-amino-3-chloropyridin-4-yl)thio)pyrido[2,3-b]pyrazin-2-yl)-4-chloro-1,3-dihydrospiro[indene-2,4′-piperidin]-1-amine] | 96 | – |
| Nc1nccc(Sc2ccc3nc(N4CCC5(CC4)Cc4ncccc4[C@@H]5N)cnc3n2)c1Cl [Example 167, (R)-1′-(6-((2-amino-3-chloropyridin-4-yl)thio)pyrido[2,3-b]pyrazin-2-yl)-5,7-dihydrospiro[cyclopenta[b]pyridine-6,4′-piperidin]-5-amine] | 50 | – |
| Cc1nccc(Sc2ccc3nc(N4CCC5(CC4)Cc4cc(O)ccc4[C@H]5N)cnc3n2)c1Cl [Example 156, (S)-1-amino-1′-(6-((3-chloro-2-methylpyridin-4-yl)thio)pyrido[2,3-b]pyrazin-2-yl)-1,3-dihydrospiro[indene-2,4′-piperidin]-5-ol] | 32 | – |
| CC1CCN(c2cnc3nc(Sc4ccnc(N)c4Cl)ccc3n2)CC1 [Example 143, 3-chloro-4-((2-(4-methylpiperidin-1-yl)pyrido[2,3-b]pyrazin-6-yl)thio)pyridin-2-amine] | 1760 | – |
| COc1cccc2c1CC1(CCN(c3cnc4nc(Sc5ccnc(N)c5Cl)ccc4n3)CC1)[C@@H]2N [Example 155] | 45 | – |
